Assays:
[1] = biological target: T1, Menin/MLL (terbium chelate-labeled menin, FITC-MBM1 peptide) (Homo sapiens, UniProt O00255, T541A); assay: Menin/MLL homogenous time-resolved fluorescence (HTRF) assay; type: binding; conditions: averaged values over all measurements; read-out: Menin HTRF assay (IC50)
T1 construct: Menin (a.a. 1-610-6×his tag) was labeled with terbium cryptate as follows
T1 sequence (O00255 with tags, fused parts or gaps T541A): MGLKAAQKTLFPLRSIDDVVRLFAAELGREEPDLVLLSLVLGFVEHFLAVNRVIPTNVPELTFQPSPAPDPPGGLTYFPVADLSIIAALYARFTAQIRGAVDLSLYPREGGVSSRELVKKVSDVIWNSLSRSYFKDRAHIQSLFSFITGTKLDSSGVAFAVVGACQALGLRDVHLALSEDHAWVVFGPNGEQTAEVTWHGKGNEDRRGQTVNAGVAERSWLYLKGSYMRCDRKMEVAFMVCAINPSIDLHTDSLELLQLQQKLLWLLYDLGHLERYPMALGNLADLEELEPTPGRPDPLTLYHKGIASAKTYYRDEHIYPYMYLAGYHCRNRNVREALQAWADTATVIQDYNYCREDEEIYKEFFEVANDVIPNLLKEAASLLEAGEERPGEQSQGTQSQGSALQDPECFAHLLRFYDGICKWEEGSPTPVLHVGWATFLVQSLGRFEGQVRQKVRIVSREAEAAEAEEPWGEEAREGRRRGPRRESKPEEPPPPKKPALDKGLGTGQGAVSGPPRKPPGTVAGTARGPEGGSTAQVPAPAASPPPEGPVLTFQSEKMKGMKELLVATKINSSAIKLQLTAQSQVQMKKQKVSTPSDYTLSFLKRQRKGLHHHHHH
Experimental: 3) Menin/MLL Homogenous Time-Resolved Fluorescence (HTRF) Assay
To an untreated, white 384-well microtiter plate was added 40 nL 200× test compound in DMSO and 4 μL 2× terbium chelate-labeled menin (vide infra for preparation) in assay buffer (40 mM Tris-HCl, pH 7.5, 50 mM NaCl, 1 mM DTT and 0.05% Pluronic F-127). After incubation of test compound and terbium chelate-labeled menin for 5 min at ambient temperature, 4 μL 2×FITC-MBM1 peptide (FITC-β-alanine-SARWRFPARPGT-NH2) in assay buffer was added, the microtiter plate centrifuged at 1000 rpm for 1 min and the assay mixtures incubated for 15 min at ambient temperature. The relative amount of menin⋅FITC-MBM1 complex present in an assay mixture is determined by measuring the homogenous time-resolved fluorescence (HTRF) of the terbium/FITC donor/acceptor fluorophore pair using a BMG Pherastar plate reader (ex. 337 nm/terbium em. 490 nm/FITC em. 520 nm) at ambient temperature. The degree of fluorescence resonance energy transfer (the HTRF value) is expressed as the ratio of the fluorescence emission intensities of the FITC and terbium fluorophores (F^em 520 nm/F^em 490 nm). The final concentrations of reagents in the binding assay are 100 pM terbium chelate-labeled menin, 75 nM FITC-MBM1 peptide and 0.5% DMSO in assay buffer. Dose-response titrations of test compounds are conducted using an 11 point, three-fold serial dilution scheme, starting at 31 μM.
Compound potencies were determined by first calculating % inhibition at each compound concentration according to equation 1: % inhibition=((HC−LC)−(HTRF^compound−LC))/(HC−LC))*100 (Eqn 1)
Where LC and HC are the HTRF values of the assay in the presence or absence of a saturating concentration of a compound that competes with FITC-MBM1 for binding to menin, and HTRF^compound is the measured HTRF value in the presence of the test compound. HC and LC HTRF values represent an average of at least 16 replicates per plate.
Where Bottom and Top are the lower and upper asymptotes of the dose-response curve, respectively, IC50 is the concentration of compound that yields 50% inhibition of signal and h is the Hill coefficient.
Preparation of Terbium cryptate labeling of Menin: Menin (a.a. 1-610-6×his tag) was labeled with terbium cryptate as follows. 2 mg of Menin was buffer exchanged into 1× phosphate buffered saline. 16 uM Menin was incubated with 4-fold molar excess NHS-terbium cryptate (Cisbio Bioassays, Bedford, Mass.) for 2 hours at room temperature. The labeled protein was purified away from free label by running the reaction over a Superdex 200 Increase 10/300 GL column at 0.75 ml/min. Peak fractions were collected, aliquoted and frozen at −80° C.

MV-4-11 = assay: Proliferation assay (spheroid assay) MV-4-11; type: cell-based, human; conditions: Homo sapiens, MV4-11, MV-4-11; averaged values over all measurements; read-out: Spheroid assay MV-4-11 (IC50)
Experimental: The anti-proliferative effect of menin/MLL protein/protein interaction inhibitor test compounds was assessed in human leukemia cell lines. The cell lines MV-4-11 and MOLM14 harbor MLL translocations and express the MLL fusion proteins MLL-AF4 and MLL-AF9, respectively, as well as the wildtype protein from the second allele. […] K562 and KG1 were used as a control cell lines containing two MLL wildtype alleles in order to exclude compounds that display general cytotoxic effects.
MV-4-11 and MOLM14 were cultured in RPMI-1640 (Sigma Aldrich) supplemented with 10% fetal bovine serum (HyClone), 2 mM L-glutamine (Sigma Aldrich) and 50 μg/ml gentamycin (Gibco). K562 were propagated in RPMI-1640 (Sigma Aldrich) supplemented with 20% fetal bovine serum (HyClone), 2 mM L-glutamine (Sigma Aldrich) and 50 μg/ml gentamycin (Gibco). KG1 were cultured in Iscove's MDM (Gibco) supplemented with 20% fetal bovine serum (HyClone), 2 mM L-glutamine (Sigma Aldrich) and 50 μg/ml gentamycin (Gibco).
In order to assess the anti-proliferative effects, 1,500 MV-4-11, 300 MOLM14, 750 K562 or 1,300 KG1 cells were seeded in 200 μl media per well in 96-well round bottom, ultra-low attachment plates (Costar, catalogue number 7007). Cell seeding numbers were chosen based on growth curves to ensure linear growth throughout the experiment. Test compounds were added at different concentrations and the DMSO content was normalized to 0.3%. Cells were incubated for 8 d at 37° C. and 5% CO2. Spheroid like growth was monitored in real-time by live-cell imaging (IncuCyteZOOM, Essenbio, 4× objective) acquiring one image every four hours for 8 d. Confluence (%) as a measure of spheroid size was determined using an integrated analysis tool.
In order to determine the cumulative effect of the test compounds over time, the area under the curve (AUC) in a plot of confluence against time was calculated. Confluence at the beginning of the experiment (t=0) was used as baseline for the AUC calculation.
Absolute IC50 values were calculated according to the following procedure: % Control=(AUC sample/AUC control)*100
AUC control=mean AUC of control values (cells without compound/DMSO as vehicle control)
A non-linear curve fit was applied using the least squares (ordinary) fit method to the plot of % control versus compound concentration. Based on this, the absolute IC50 value (half maximal inhibitory concentration of the test compound causing an anti-proliferative effect of 50% relative to the vehicle control) was calculated.

Structure (SMILES) | IC50 [1] [nM] | IC50 (MV-4-11) [nM]
COc1cncc(CN2CC[C@@H]3CN(c4ncnc5sc(CC(F)(F)F)cc45)C[C@@H]3C2)c1 (single isomer, unassigned) [Compound 46] | 105 | 1500
CC(CN1CC[C@@H]2CN(c3ncnc4sc(CC(F)(F)F)cc34)C[C@@H]2C1)C(F)(F)F (single isomer, unassigned) [Compound 47] | 55 | 2300
CC(CN1CC[C@@H]2CN(c3ncnc4sc(CC(F)(F)F)cc34)C[C@@H]2C1)c1ccccc1 (single isomer, unassigned) [Compound 49] | 44 | 1900
FC(F)(F)Cc1cc2c(N3C[C@H]4CCN(Cc5cnoc5)C[C@H]4C3)ncnc2s1 (single isomer, unassigned) [Compound 51] | 62 | 2300
FC(F)(F)Cc1cc2c(N3C[C@H]4CCN(Cc5cnsc5)C[C@H]4C3)ncnc2s1 (single isomer, unassigned) [Compound 52] | 41 | 860
Cn1cncc1CN1CC[C@@H]2CN(c3ncnc4sc(CC(F)(F)F)cc34)C[C@@H]2C1 (single isomer, unassigned) [Compound 54] | 97 | 2100
FC(F)(F)Cc1cc2c(N3C[C@H]4CCN(Cc5ccnnc5)C[C@H]4C3)ncnc2s1 (single isomer, unassigned) [Compound 55] | 75 | 3300
FC(F)(F)Cc1cc2c(N3C[C@H]4CCN(Cc5cccnc5)C[C@H]4C3)ncnc2s1 (single isomer, unassigned) [Compound 56] | 41 | 1400
FC(F)(F)Cc1cc2c(N3C[C@H]4CCN(CCC5CCOCC5)C[C@H]4C3)ncnc2s1 (single isomer, unassigned) [Compound 59] | 212 | 1800
COc1ccncc1CN1CC[C@@H]2CN(c3ncnc4sc(CC(F)(F)F)cc34)C[C@@H]2C1 (single isomer, unassigned) [Compound 61] | 146 | 1700
FC(F)(F)Cc1cc2c(N3C[C@H]4CCN(Cc5ccc(Cl)nc5Cl)C[C@H]4C3)ncnc2s1 (single isomer, unassigned) [Compound 62] | 36 | 2200
FC(F)(F)Cc1cc2c(N3C[C@H]4CCN(Cc5ccnc(Cl)c5)C[C@H]4C3)ncnc2s1 (single isomer, unassigned) [Compound 65] | 56 | 1200
Cn1ccc(CN2CC[C@@H]3CN(c4ncnc5sc(CC(F)(F)F)cc45)C[C@@H]3C2)cc1=O (single isomer, unassigned) [Compound 68] | 266 | 2900
OCCn1cc(CN2CC[C@@H]3CN(c4ncnc5sc(CC(F)(F)F)cc45)C[C@@H]3C2)cn1 (single isomer, unassigned) [Compound 75] | 28 | 1000
CC(=O)N1CCC(CN2CC[C@@H]3CN(c4ncnc5sc(CC(F)(F)F)cc45)C[C@@H]3C2)CC1 (single isomer, unassigned) [Compound 76] | 105 | 2900
FC(F)(F)Cc1cc2c(N3CC[C@@H]4[C@@H](CCN4Cc4ccc[nH]4)C3)ncnc2s1 (single isomer, unassigned) [Compound 85] | 103 | 3100
OC1(CN2CC[C@@H]3CN(c4ncnc5sc(CC(F)(F)F)cc45)C[C@@H]3C2)CCOCC1 (single isomer, unassigned) [Compound 86] | 198 | 6600
FC(F)(F)Cc1cc2c(N3C[C@H]4CCN(Cc5ccc(C6CC6)nc5)C[C@H]4C3)ncnc2s1 (single isomer, unassigned) [Compound 89] | 24 | 240
O=C(C1CCOCC1)N1CCC(CN2CC[C@@H]3CN(c4ncnc5sc(CC(F)(F)F)cc45)C[C@@H]3C2)CC1 (single isomer, unassigned) [Compound 91] | 30 | 1200
O=C(C1CCCOC1)N1CCC(CN2CC[C@@H]3CN(c4ncnc5sc(CC(F)(F)F)cc45)C[C@@H]3C2)CC1 (single isomer, unassigned) [Compound 92] | 14 | 450
CC(C)(C)CC(=O)N1CCC(CN2CC[C@@H]3CN(c4ncnc5sc(CC(F)(F)F)cc45)C[C@@H]3C2)CC1 (single isomer, unassigned) [Compound 93] | 20 | 580
O=C(c1ccccc1)N1CCC(CN2CC[C@@H]3CN(c4ncnc5sc(CC(F)(F)F)cc45)C[C@@H]3C2)CC1 (single isomer, unassigned) [Compound 94] | 18 | 430
O=C(C1COC1)N1CCC(CN2CC[C@@H]3CN(c4ncnc5sc(CC(F)(F)F)cc45)C[C@@H]3C2)CC1 (single isomer, unassigned) [Compound 95] | 69 | 2100
O=C(c1cccnc1)N1CCC(CN2CC[C@@H]3CN(c4ncnc5sc(CC(F)(F)F)cc45)C[C@@H]3C2)CC1 (single isomer, unassigned) [Compound 96] | 45 | 1000
COCCn1cc(CN2CC[C@@H]3CN(c4ncnc5sc(CC(F)(F)F)cc45)C[C@@H]3C2)cn1 (single isomer, unassigned) [Compound 97] | 150 | 2000
CCOc1ccc(CN2CC[C@@H]3CN(c4ncnc5sc(CC(F)(F)F)cc45)C[C@@H]3C2)cn1 (single isomer, unassigned) [Compound 103] | 106 | 1100

Source: patent US10611778B2, “Fused bicyclic inhibitors of menin-MLL interaction” (Janssen Pharmaceutica NV, priority 2016, dated 2020)
